Columns and labels:
[1] = system: p-Btk(Y223) in CD20+ B cells; assay: Phosphoflow cytometry of p-Btk(Y223) in CD20+ B cell gate of healthy PBMCs; assay type: cell-based; details: 2 hours incubation, anti-IgM or anti-IgM+SDF-1 for 5 minutes, low nM concentrations, FIG. 1
Protocol: (§1) Cells were then analyzed by phosphoflow cytometry and p-Btk(Y223) was measured in the CD20+ B cell gate and the CD14^+ monocyte gate separately. In B cells, BTK phosphorylation in anti-IgM stimulated B cells is increased with the addition of SDF-1 (CXCL-12) in the “No drug” condition. […] In monocytes, BTK phosphorylation is only observed when SDF-1 is present.

[2] = system: p-Btk(Y223) in CD14+ monocytes; assay: Phosphoflow cytometry of p-Btk(Y223) in CD14+ monocyte gate of healthy PBMCs; assay type: cell-based; details: SDF-1 stimulation, FIG. 2
Protocol: as §1

[3] = system: CXCR4 surface expression in B-CLL cells; assay: CXCR4 surface expression in B-CLL cells of CLL patients after administration; assay type: in vivo, human; details: CLL patients with 17p deletion, blood 4, 24, 48 hours after day 3 dose
Protocol: Drug was given for 3 days. Blood was drawn predose, and then 4, 24, and 48 hours after the day 3 dose.

[4] = system: RANK MDA-MB231; assay: RANK MDA-MB231 mouse experiment (bone metastases, bioluminescence imaging); assay type: in vivo; details: ~10 and ~50 mg/kg/day PO, 2 weeks of treatment, FIG. 9
Source text: FIG. 9 illustrates the results of a RANK MDA-MB231 mouse experiment. […] The primary endpoint was bioluminescence imaging (weekly). The secondary endpoints were serum CTx (bone resorption) and serum P1NP (bone formation).

CC#CC(=O)N1CCC[C@H]1c1nc(-c2ccc(C(=O)Nc3ccccn3)cc2)c2c(N)nccn12 [Formula (II), (S)-4-(8-amino-3-(1-(but-2-ynoyl)pyrrolidin-2-yl)imidazo[1,5-a]pyrazin-1-yl)-N-(pyridin-2-yl)benzamide]
BTK phosphorylation, p-Btk(Y223), in B cells [1]: inhibited
SDF-1/CXCR4 signaling (SDF-1 induced p-Btk) in monocytes [2]: inhibits
CXCR4 surface expression in B-CLL cells compared to predose ([3]; 100 mg BID for 3 days, FIG. 3): reduced
CXCR4 surface expression in B-CLL cells compared to predose ([3]; 200 mg QD for 3 days, FIG. 4): reduced
Bone metastases (bioluminescence imaging) [4]: dose-response reduction
